{"source": "patent US7144920B2", "about": "“Polyamine analogs that activate antizyme frameshifting” (MediQuest Therapeutics, Inc., priority 2002, dated 2006)", "key": {"ODC": {"target": "ODC", "conditions": "read-out: Ki for ODC inhibition; cited from earlier work"}, "HEK-293 cells [1]": {"tested_on": "HEK-293 cells", "assay": "rescue from DFMO-induced growth inhibition", "type": "cell-based", "conditions": "25 μM compound, 2.5 mM DFMO, 6 days", "protocol": "FIG. 5 gives a comparison of the ability of antizyme frameshifters (25 μM) to rescue cells from 2.5 mM DFMO-induced growth inhibition compared to 25 μM spermidine (SPD) in a 6-day assay in HEK-293 cells. The rescue coefficient represents the ratio of cell growth, as measured by O.D., of the test compound with 2.5 mM DFMO versus 2.5 mM DFMO alone.\nHEK-293 cells are plated in 96-well assay plates at 1,000 cells per well in 100 μL of medium (DMEM supplemented with 10% fetal bovine serum (Gibco), 1% penicillin, streptomycin and L-glutamine). The cells are incubated overnight at 37° C. in an atmosphere of 5% CO2. Compounds are added the next day to a final concentration of 25 μM along with 1 mM aminoguanidine (inhibits serum amine oxidase) and 2.5 mM DFMO in a final volume of 200 μL medium. The positive control contained 25 μM spermidine. The cells are allowed to incubate for 6 days before cell growth is measured by MTS/PMS dye assay (Cell Titer 96 Aqueous Non-Radioactive Cell Proliferation Assay, Promega). The rescue coefficients in FIG. 1 and FIG. 5 are expressed as the ratio of the O.D. ((compound+2.5 mM DFMO)/O.D. (2.5 mM DFMO alone)). Therefore, DFMO alone has a value of one. […] If the value is less than one, then the compound is growth inhibitory. If the value is 0, the compound is cytotoxic."}, "[2]": {"tested_on": "antizyme frameshifting (inducible 0 to +1 AZ1 construct) in HEK-293 cells", "assay": "dual luciferase reporter assay for antizyme frameshifting", "type": "cell-based", "conditions": "for frameshift-rescue factor (FRF): % RF multiplied by inverse of rescue coefficient, HEK-293; for frameshift-rescue factor (FRF) / induction of antizyme frameshifting, comparison in words: 25 μM; for EC50: HEK-293 cells grown in 2.5 mM DFMO, 50% of maximum percent frameshifting (plateau, FIG. 3), read-out: EC50 for induction of frameshifting; for induction of antizyme frameshifting, comparison in words: HEK-293 (FIG. 1, FIG. 2)", "experimental": "Frameshifting can be detected using a dual luciferase reporter system that measures the efficiency of antizyme translational frameshifting (Grentzmann, G. et. al., RNA 4:479–486 (1998); Howard, M. et. al., Genes to Cells 6:931–941 (2001)). Frameshifting efficiency is determined by comparing the ratio of firefly luciferase to renilla luciferase activity in cells transfected in parallel using a control vector containing a constitutive +1 frameshift (AZ-IF) that measures the in-frame translation efficiency and a vector containing the inducible 0 to +1 frameshift (AZ1) construct. In these constructs, the renilla luciferase gene is upstream of the firefly luciferase gene which are separated by a short cloning sequence containing the portions of antizyme 1 and 2 known to contain the mRNA signals for polyamine stimulated frameshifting. Using a 96-well format, this assay system gives a quantitative measure of the efficiency of the polyamines, polyamine analogs and other compounds to induce frameshifting in a cell-based bioassay. Cells must be pretreated with α-difluoromethylornithine (DFMO), an irreversible inhibitor of ODC, prior to screening to decrease the basal antizyme frameshifting levels and increase the sensitivity to polyamine or compound-mediated stimulation of antizyme frameshifting.\nFIG. 1 is a tabular representation of a large number of polyamines A-S (25 μM) that were tested for their ability to induce antizyme frameshifting using the dual luciferase reporter assay. The percent relative frameshifting value (% RF) gives a comparison of the ability of a compound to induce frameshifting compared to 25 μM spermidine. The % RF was calculated as follows. The background percent frameshifting activity determined from the 2.5 mM DFMO negative control was subtracted from the percent frameshifting activity for all compounds including the spermidine control. The background corrected frameshifting activity of each compound was then divided by the background corrected frameshifting activity induced by 25 μM spermidine and multiplied by 100. The compounds were also evaluated for their ability to rescue cells from DFMO-induced growth inhibition by determining their rescue coefficient. The rescue coefficient represents the ratio of the cell growth, as measured by O.D., in the presence of the test compound with 2.5 mM DFMO to the growth in the presence of 2.5 mM DFMO alone. The frameshift-rescue factor (FRF) is a useful factor to compare the effectiveness of the various antizyme frameshifters by taking into account their potency for inducing frameshifting and ability to rescue cells from DFMO-induced growth inhibition. The FRF was calculated by multipling the % RF value by the inverse of the rescue coefficient.\nValues represent percent frameshifting following transient transfection of an AZ1-IF control and the inducible 0 to +1 AZ1 plasmid construct into HEK-293 cells grown in the presence of 2.5 mM DFMO. The compounds were added to the cells after transfection and incubated overnight before assaying the next day. Each value represents triplicate measurements.\nA series of compounds are screened for their ability to induce frameshifting using the dual luciferase reporter assay. HEK-293 cells are plated in white sided, clear-bottomed 96-well assay plates at 15,000 cells per well in 100 μL of medium (DMEM supplemented with 10% fetal bovine serum (Gibco), 1% penicillin, streptomycin and L-glutamine) containing 2.5 mM DFMO. The cells are incubated for 2-days at 37° C. in an atmosphere of 5% CO2. The medium is removed and the cells are then transfected with lipofectamine reagent (LifeTechnologies) using serum free DMEM. All cells are transfected overnight with 100 ng of the appropriate plasmid DNA and 0.3 μL lipofectamine in 50 μL of serum free DMEM containing 2.5 mM DFMO. The next day, 40 μL of medium is added per well containing 3.1 mM DFMO, 2.5 mM aminoguanidine and 25% FBS. […]"}, "[3]": {"tested_on": "mouse kidney proximal tubule (MCT) cell", "conditions": "MCT cells; cited from earlier work"}, "HEK-293 cells [4]": {"tested_on": "HEK-293 cells", "assay": "cells", "type": "cell-based", "conditions": "for IC50: read-out: IC50 growth inhibition", "experimental": "Cell number was determined by MTS/PMS assay from triplicate wells.\n(§1) Cells are plated in 96-well plates such that they would be in log growth for the duration of the assay. The day after plating, the polyamine analogs are added to the cells, and growth, if any, permitted to continue for six days in the presence of 1 mM AG and 1 μM SPD when appropriate. At the end of six days, cell growth is measured by MTS/PMS dye assay (Cell Titer 96 Aqueous Non-Radioactive Cell Proliferation Assay; Promega, Madison, Wis.). IC50 refers to the concentration of the polyamine analog that results in 50% of maximum cell growth inhibition."}, "MDA-MB-231 cells": {"tested_on": "MDA-MB-231 cells", "assay": "growth inhibition, MDA-MB-231", "type": "cell-based", "conditions": "Homo sapiens; MDA-MB-231 cells (data not shown)", "experimental": "as §1"}, "prostate PC-3 cells": {"tested_on": "prostate PC-3 cells", "assay": "growth inhibition, PC-3", "type": "cell-based", "conditions": "Homo sapiens; prostate PC-3 cells (data not shown)", "experimental": "as §1"}, "antizyme frameshifting": {"tested_on": "antizyme frameshifting", "conditions": "cited from earlier work"}, "HEK-293 cells [5]": {"tested_on": "HEK-293 cells", "assay": "depletion of intracellular polyamine levels (HPLC) and cell growth", "type": "cell-based", "experimental": "FIG. 6 is a graph showing the effect of a 6-day incubation of compound A on HEK-293 cellular polyamine levels and cell growth. All flasks received 1 mM aminoguanidine. Cells were washed, counted, lysed in perchloric acid, dansylated and polyamine levels determined by HPLC. Each value represents the average of triplicate values with the error bars representing standard deviation.\nFIG. 7 illustrates the effect of extracellular compound A on the intracellular concentration of compound A in HEK-293 cells as determined by HPLC. Cells were prepared as in FIG. 6. Peak area was normalized by dividing the peak area of the compound divided by the peak area of the internal standard, diaminoheptane. Values represent at least triplicate measurements with the error bars representing standard deviation.\nCompound A is further evaluated to determine if it depletes intracellular polyamine levels in HEK-293 cells in a dose-dependent fashion (FIG. 6). HEK-293 cells are plated in 75 cm^2 flasks at 300,000 cells/mL to insure they would be in log growth for the duration of the experiment. After overnight incubation at 37° C. in an atmosphere of 5% CO2, compound A is added along with 1 mM aminoguanidine. The flasks are then incubated for 6 days at 37° C. in an atmosphere of 5% CO2. The cells are harvested by washing twice with ice-cold 1×PBS, trypsinized, counted, and lysed in 0.4 N perchloric acid. Diaminoheptane is used in all dansylation reactions as an internal standard. Peak area is normalized by dividing the peak area of the compound divided by the peak area of the internal standard. The HPLC method for the fluorometric detection of polyamines from the cell extracts is based on the procedure by Kabra (Kabra, P. M. et. al. J. Chromatogr. 380:19–32 (1986))."}}, "note": "Where “and” joins values, the source holds several entries; their conditions need not be identical. Equal values may be shown once. Read-outs that look alike come from different tables or passages of the source.", "data": [{"compound": "NC/C=C/CN", "note": "[1,4-diamino-trans-2-butene]", "values": [{"measurement": "Ki", "setting": "ODC", "value": 2, "unit": "µM"}]}, {"compound": "Nc1ccc(N)cc1", "note": "[1,4-phenylenediamine]", "values": [{"measurement": "Ki", "setting": "ODC", "value": 46, "unit": "µM"}]}, {"compound": "NCCCN(CCCN)Cc1ccc(CN(CCCN)CCCN)cc1", "note": "[Compound S]", "values": [{"measurement": "ability to rescue cells from DFMO-induced growth inhibition", "setting": "HEK-293 cells [1]", "value": "no ability to rescue"}, {"measurement": "percent relative frameshifting (% RF)", "setting": "[2]; 25 μM compound, relative to 25 μM spermidine", "value": 100, "unit": "%"}]}, {"compound": "N=C(N)NCCCCN", "note": "[agmatine]", "values": [{"measurement": "ability to rescue cells from DFMO-induced growth inhibition", "setting": "HEK-293 cells [1]", "value": "somewhat better than either A or B in rescuing cells"}, {"measurement": "frameshift-rescue factor (FRF)", "setting": "[2]", "value": 17}, {"measurement": "concentration of maximum growth inhibition", "setting": "[3]", "value": "≤ 1", "unit": "mM"}, {"measurement": "IC50", "setting": "HEK-293 cells [4]; Homo sapiens, HEK293, HEK-293 cells (data not shown)", "value": "~210", "unit": "µM"}, {"measurement": "IC50", "setting": "MDA-MB-231 cells", "value": "~2000", "unit": "µM"}, {"measurement": "IC50", "setting": "prostate PC-3 cells", "value": "~5000", "unit": "µM"}, {"measurement": "concentration of maximum frameshifting efficiency", "setting": "antizyme frameshifting", "value": 4, "unit": "mM"}]}, {"compound": "NCCCCN", "note": "[putrescine, reference compound]", "values": [{"measurement": "EC50", "setting": "[2]; Homo sapiens, HEK293", "value": 0.95, "unit": "µM"}]}, {"compound": "NCCCCNCCCN", "note": "[spermidine, reference compound]", "values": [{"measurement": "EC50", "setting": "[2]; Homo sapiens, HEK293", "value": 0.56, "unit": "µM"}]}, {"compound": "NCCCNCCCCNCCCN", "note": "[spermine, reference compound]", "values": [{"measurement": "EC50", "setting": "[2]; Homo sapiens, HEK293", "value": 0.68, "unit": "µM"}]}, {"compound": "N-(3-aminopropyl)-xylylenediamin [Compound A]", "values": [{"measurement": "ability to rescue cells from DFMO-induced growth inhibition", "setting": "HEK-293 cells [1]", "value": "neither compound A nor B significantly rescue cells"}, {"measurement": "induction of antizyme frameshifting, comparison in words", "setting": "[2]", "value": "more potent than agmatine"}, {"measurement": "frameshift-rescue factor (FRF)", "setting": "[2]", "value": 120}, {"measurement": "EC50", "setting": "[2]", "value": "~120", "unit": "µM"}, {"measurement": "IC50", "setting": "HEK-293 cells [4]; HEK-293, 6 days, 1 mM aminoguanidine", "value": "~60 µM and 60 µM"}, {"measurement": "compound A concentrations at which 1 μM spermidine rescued cells from growth inhibition", "setting": "HEK-293 cells [4]; HEK-293, 6 days, with 1 μM spermidine", "value": "3 to 100", "unit": "µM"}, {"measurement": "cell growth decrease", "setting": "HEK-293 cells [5]; 10 μM compound A, 6 days", "value": 32, "unit": "%"}, {"measurement": "spermidine levels down by", "setting": "HEK-293 cells [5]; 10 μM compound A, 6 days", "value": "about 90%"}, {"measurement": "cell growth decrease", "setting": "HEK-293 cells [5]; 30 μM compound A, 6 days", "value": 38.5, "unit": "%"}, {"measurement": "intracellular spermidine level", "setting": "HEK-293 cells [5]; 100 μM compound A, 6 days", "value": "non-detectable"}, {"measurement": "spermine levels reduced by", "setting": "HEK-293 cells [5]; 100 μM compound A, 6 days", "value": 50, "unit": "%"}, {"measurement": "spermine levels, of normal", "setting": "HEK-293 cells [5]; compound A levels above 30 μM", "value": "approximately 50%"}, {"measurement": "intracellular putrescine level", "setting": "HEK-293 cells [5]; lowest concentration of compound A tested, 6 days", "value": "non-detectable"}]}, {"compound": "N-(4-amino-1-butane-N-(3-aminopropyl-)-xylylenediamine [Compound B]", "values": [{"measurement": "ability to rescue cells from DFMO-induced growth inhibition", "setting": "HEK-293 cells [1]", "value": "neither compound A nor B significantly rescue cells"}, {"measurement": "induction of antizyme frameshifting, comparison in words", "setting": "[2]", "value": "more potent than agmatine"}, {"measurement": "frameshift-rescue factor (FRF)", "setting": "[2]", "value": 83}]}]}
